The procedure of experiment [1]: (§1) Preparation of LUVs consisting of PC/PG/MK-4 or PC/PG/UQ-10. To a solution of egg yolk phosphatidylcholine (9.48 mg, 12.4 µmol) and egg yolk phosphatidylglycerol (9.66 mg, 12.4 µmol) in CHCl3 (0.208 mL) was added a solution of MK-4 (2) or UQ-10 (3) (0.313 µmol) in CHCl3 (21.8 µL). The solution was concentrated, and dried under vacuum to for m a lipid thin film. The thin film was hydrated and suspended in carboxyfluorescein-containing buffer solution (0.500 mL, 5 mM HEPES, 20 mM carboxyfluorescein , pH 7.5) by vortexing and sonication. After five-times freeze-thaw cycles, the lipid suspension was extruded 19 times through a polycarbonate filter with 0.40 µm of pore siz e in the diameter.
(§2) The external carboxyfluorescein -containing buffer was replaced with a carboxyfluorescein -free buffer solution (20 mM HEPES, 1 mM EDTA, pH 7.5) through size exclusion chromatography using disposable PD -10 column. Concentration of egg yolk phosphatidylcholine was determined by using Phospholipid C -Test Wako.
(§3) The final concentration of egg yolk phosphatidylcholine was adjusted to 4.0 µM with the carboxyfluorescein -free buffer solution, and the solution was used for membrane disruption ass ay.
Membrane disruption assay. […]
(§4) to various concentrations as 5-fold serial dilutions. The solution of peptides (2 µL/well) and the carboxyfluorescein-encapsulated LUV suspension (200 µL/well) were mixed in black polystyrene flat-bottom 96-well plates. The final concentration of peptides ranged from 2970 nM to 0.950 nM. The plates were vortexed at room temperature for 30 min, and then fluorescence of carboxyfluorescein (Ex. 490 nm/Em. 517 nm) of each well was measured at room temperature on Gemini EM microplate reader. Trion X-100/H2O (5/95, 2 µL), MeOH/H2O (4/6, 2 µL), and the LUV suspension were mixed in each plate to determine 100% lysis. MeOH/H2O (4/6, 2 µL) and the LUV suspension were mixed in each plate to determine 0% lysis.
(§5) The membrane disruption activities of tested peptides (I) were normalized against 100% lysis by Triton X -100 […]
(§6) (Imax) and 0% lysis by MeOH/H2O (4/6) (I0) as following, where Ix is the fluorescence intensity (Supplementary Equation 2).
(§7) I = 100 × (Ix – I0) / (Imax – I0) (2)
(§8) The membrane-disrupting activities were evaluated as half-maximal response (EC50, nM) values by means of three replicates. Sigmoidal curve fittings were performed on R2 with drc package (Supplementary Figs S7–S9).3 Two-parameter logistic model was applied for the fitting.

Experiment [2] deals with MRSA4. The experiment is classed as cell-based, Staphylococcus aureus. The note with it: 18 h. Here is the method: Antimicrobial activity assay of bead-derived peptides. […]
plate was added DMSO (1 µL/well). […]
precipitation of the grown cells was examined.
Evaluation of antimicrobial spectra of peptides. The MIC assay was performed according to the Clinical and Laboratory Standards Institute protocols. The antimicrobial activities of the peptides were measured […]
Soy Broth or Müller Hinton Broth agar plates. Bacterial inoculum was prepared by direct suspension of the […]
and incubated at 37 °C for 18 h. […]
inhibited growth of bacteria.

In experiment [3] the test system is S. aureus Smith ATCC 13709. Description: Antimicrobial activity assay of bead-derived peptides (one-bead, microscale). Format: cell-based, Staphylococcus aureus. The arrangement: key to antimicrobial activity: ++: inhibition; +: partial inhibition; -: no inhibition. The following applies: for antimicrobial activity: 85% of one-bead-derived crude peptide, 40 μL Mueller Hinton Broth with 10% calf serum, 37 °C, 18 h. Here is the method:
Finally, a microscale antimicrobial assay was developed to evaluate the activity of 1 in solution phase.
Antimicrobial activity assay of bead-derived peptides. To the crude peptides in the 96-well round-bottom plate was added DMSO (1 µL/well). To the solution of peptides in each well was added a suspension of S. aureus Smith ATCC 13709 strain in 10% calf serum containing cation adjusted Müller Hinton Broth [40 µL, 2 ×10^5 colony forming units (CFU) , 21 g/L Müller Hinton Broth (Difco), 5 0 mg/L Ca2+ (adjusted with CaCl2• 2H2O), and 25 mg/L Mg 2+ (adjusted with MgCl 2•6H2O)]. The plate was incubated at 37 °C for 18 h, and the precipitation of the grown cells was examined. […]

The test system of experiment [4] is Staphylococcus aureus MSSA1. The following applies: for antimicrobial activity relative to parent 1: 10% BCS. Here is the method:
Evaluation of antimicrobial spectra of peptides. The MIC assay was performed according to the Clinical and Laboratory Standards Institute protocols. The antimicrobial activities of the peptides were measured using the broth microdilution method.1 Serial dilutions of peptides were prepared in cation adjusted Müller Hinton Broth. Each dilution (100 µL) was dispensed to each well of the round-bottom plate to obtain final concentrations ranging from 64 µg/m L to 0.0075 µg/m L. Bacteria were grown at 37 °C overnight on Tryptic Soy Broth or Müller Hinton Broth agar plates. Bacterial inoculum was prepared by direct suspension of the colonies in 0.9% saline, and adjusted to obtain OD 625 0.08–0.13 using a spectrophotometer UV -1280 (Shimadzu). The resultant suspension was diluted with cation adjusted Müller Hinton Broth (1/20). The resultant mixture (10 µL) was inoculated to each well of the plates (approximately 5 ×10^4 CFU/well ), mixed, and incubated at 37 °C for 18 h. The MIC value was determined as the minimum concentration that inhibited growth of bacteria. To evaluate the antimicrobial activities of peptides in the presence of serum, 10% bovine calf serum in cation adjusted Müller Hinton Broth was used.

Experiment [5] is described as follows: Liposomal membrane disruption assay (carboxyfluorescein LUVs). The experiment is classed as biochemical. Here is the method: as §1, §2, §3
as §4, with “Membrane disruption assay. Peptides 1, A1–A22, B1–B5, and C1–C5 were diluted with MeOH/H2O (4/6) to various” for “to various”
as §5, §6, §7, §8

The mark [6] stands for this setting: read-out: EC50 PC/PG/2 1st, PC/PG/2 LUVs, 1st experiment.
The mark [7] stands for this setting: read-out: EC50 PC/PG/2 2nd, PC/PG/2 LUVs, 2nd experiment.
Where [8] appears, read: read-out: EC50 PC/PG/2 3rd, PC/PG/2 LUVs, 3rd experiment.
The mark [9] stands for this setting: read-out: EC50 PC/PG/2, 30 min, room temperature, mean ± SD of three independent experiments.
[10] abbreviates: 30 min, room temperature, mean ± SD of three independent experiments, read-out: EC50 PC/PG/3.
The mark [11] stands for this setting: PC/PG/3 LUVs, 1st experiment, read-out: EC50 PC/PG/3 1st.
Where [12] appears, read: PC/PG/3 LUVs, 2nd experiment, read-out: EC50 PC/PG/3 2nd.
[13] abbreviates: PC/PG/3 LUVs, 3rd experiment, read-out: EC50 PC/PG/3 3rd.

Each structure is given as a SMILES string. ≈ marks a conversion by molar mass, not a printed value. Entries after “also recorded” stand apart in the source; their conditions may differ. Like-named read-outs stand apart in the source and are kept apart here. Where a SMILES comes first, the peptide text is derived from it. Bridges are numbered along the chain shown (N, C = ends). [ ]: non-standard residue; d: D form. The star is where a group is joined. Hexanoyl(3R-OH,5-Me) = CC(C)C[C@@H](O)CC(=O)*; dNMeF = CN[C@H](Cc1ccccc1)C(=O)O

The term MIC denotes the least concentration at which growth counts as inhibited.

As to `CC[C@H](C)[C@@H]1NC(=O)[C@@H](Cc2c[nH]c3ccccc23)NC(=O)[C@@H](CCC(N)=O)NC(=O)[C@H](CCC(=O)O)NC(=O)[C@@H](CCCNC(=N)N)NC(=O)[C@H](CC(C)C)NC(=O)[C@@H](Cc2ccccc2)N(C)C(=O)CNC(=O)[C@H](CO)NC(=O)[C@@H](CCCNC(=N)N)NC(=O)[C@@H](NC(=O)C[C@H](O)CC(C)C)[C@@H](C)OC(=O)[C@H]([C@@H](C)O)NC1=O` [Peptide 1, Lysocin E] ({Hexanoyl(3R-OH,5-Me)}-T[dR]SG[dNMeF]L[dR]E[dQ][dW]IT; ester 1-C), the “selectivity index (EC50 against PC/PG/3 divided by EC50 against PC/PG/2)” value in experiment [1] is 4.7. Further, the EC50 in experiment [1] (setting [6]) was found to be 16.7 nM; in experiment [1] (setting [7]), 34 nM; in experiment [1] (setting [8]), 7.9 nM; in experiment [1] (setting [9]), 19.5 nM; in experiment [5] (setting [10]), 92 nM; in experiment [5] (setting [11]), 58 nM. In addition, the EC50 in experiment [5] (setting [12]) was 167 nM; in experiment [5] (setting [13]), 51.6 nM. Also, the figures for the MIC in experiment [2], in experiment [4] (10% BCS (+)) and in experiment [4] (BCS free) were 0.25 µg/mL (≈ 0.155 µM), 0.0625 µg/mL (≈ 0.0386 µM) and 2.0 µg/mL (≈ 1.24 µM), respectively. For the same molecule, the “growth inhibition of S. aureus Smith ATCC 13709” value in experiment [3] (10% BCS-doped Mueller Hinton Broth (40 μL), natural 1 0.04 μg per well or 85% of single bead-derived 1 (0.21 μg), duplicate) is reported as “Complete growth inhibition; also recorded: completely inhibit the growth”. Also, in experiment [3], the antimicrobial activity result is “++”.
`CC[C@H](C)[C@@H]1NC(=O)[C@@H](Cc2c[nH]c3ccccc23)NC(=O)[C@@H](CCC(N)=O)NC(=O)[C@H](CCC(=O)O)NC(=O)[C@@H](CCCNC(=N)N)NC(=O)[C@H](CC(C)C)NC(=O)[C@@H](Cc2ccccc2)N(C)C(=O)CNC(=O)[C@H](C)NC(=O)[C@@H](CCCNC(=N)N)NC(=O)[C@@H](NC(=O)C[C@H](O)CC(C)C)[C@@H](C)OC(=O)[C@H]([C@@H](C)O)NC1=O` [Peptide A1] ({Hexanoyl(3R-OH,5-Me)}-T[dR]AG[dNMeF]L[dR]E[dQ][dW]IT; ester 1-C): the EC50 came out at 25.9 nM in experiment [1] (setting [6]); 4.68 nM in experiment [1] (setting [7]); 6.1 nM in experiment [1] (setting [8]); 12.2 ± 11.9 nM in experiment [1] (setting [9]); 92.7 ± 31.3 nM in experiment [5] (setting [10]); 128 nM in experiment [5] (setting [11]). In addition, the values for the EC50 in experiment [5] (setting [12]) and in experiment [5] (setting [13]) were 82.1 nM and 68.1 nM, respectively. The MIC in experiment [2] is 0.25 µg/mL (≈ 0.156 µM). For the same molecule, the antimicrobial activity entry in experiment [3] is “+”. In addition, the “antimicrobial activity relative to parent 1” value in experiment [4] came to 4 fold.
Regarding `CC[C@H](C)[C@@H]1NC(=O)[C@@H](Cc2c[nH]c3ccccc23)NC(=O)[C@@H](C(C)C)NC(=O)[C@H](CCC(=O)O)NC(=O)[C@@H](CCCNC(=N)N)NC(=O)[C@H](CC(C)C)NC(=O)[C@@H](Cc2ccccc2)N(C)C(=O)CNC(=O)[C@H](C)NC(=O)[C@@H](CCCNC(=N)N)NC(=O)[C@@H](NC(=O)C[C@H](O)CC(C)C)[C@@H](C)OC(=O)[C@H]([C@@H](C)O)NC1=O` [Peptide A2] ({Hexanoyl(3R-OH,5-Me)}-T[dR]AG[dNMeF]L[dR]E[dV][dW]IT; ester 1-C), the EC50 in experiment [1] (setting [6]) was determined as 31.1 nM; in experiment [1] (setting [7]), 18.3 nM; in experiment [1] (setting [8]), 4.6 nM; in experiment [1] (setting [9]), 18 ± 13.3 nM; in experiment [5] (setting [11]), 89.7 nM; in experiment [5] (setting [12]) it was 133 nM. Further, the EC50 in experiment [5] (setting [13]) turned out to be 57.5 nM. The MIC in experiment [2] was 0.25 µg/mL (≈ 0.159 µM). Besides, the antimicrobial activity entry in experiment [3] is given as “++”. In addition, the “antimicrobial activity relative to parent 1” value in experiment [4] is given as 4 fold.
For the molecule `CC[C@H](C)[C@@H]1NC(=O)[C@@H](Cc2c[nH]c3ccccc23)NC(=O)[C@@H](C(C)C)NC(=O)[C@H](CCC(=O)O)NC(=O)[C@@H](CCCNC(=N)N)NC(=O)[C@H](CC(C)C)NC(=O)[C@@H](Cc2ccccc2)N(C)C(=O)CNC(=O)[C@H](CCCCN)NC(=O)[C@@H](CCCNC(=N)N)NC(=O)[C@@H](NC(=O)C[C@H](O)CC(C)C)[C@@H](C)OC(=O)[C@H]([C@@H](C)O)NC1=O` [Peptide A3] ({Hexanoyl(3R-OH,5-Me)}-T[dR]KG[dNMeF]L[dR]E[dV][dW]IT; ester 1-C), the EC50 in experiment [1] (setting [6]) stood at 7.68 nM; in experiment [1] (setting [7]), 14.6 nM; in experiment [1] (setting [8]) it was 9.8 nM; in experiment [1] (setting [9]) it was 10.7 ± 3.5 nM; in experiment [5] (setting [10]), 103 ± 85 nM; in experiment [5] (setting [11]), 47.4 nM. Besides, the results for the EC50 in experiment [5] (setting [12]) and in experiment [5] (setting [13]) were 201 nM and 60.9 nM, respectively. The MIC in experiment [2] was 0.125 µg/mL (≈ 0.0767 µM). Besides, in experiment [3] (listed as KLVI), the antimicrobial activity result is “++ and +”. In addition, in experiment [4], the “antimicrobial activity relative to parent 1” value was found to be 4 fold.
